Assay results published in patent publication US7214697B2, “2-Oxo-benzimidazolyl substituted ethanolamine derivatives and their use as β3 agonists” (Eli Lilly and Company, priority 2002, dated 2007).

System: not given
Assay: not given
Conditions: not given

In the case of CC(C)(Cc1ccc(Oc2ccc(C(N)=O)cc2Cl)cc1)NC[C@H](O)COc1cccc2[nH]c(=O)n(CC3CCCC3)c12.Cl [Example 21], the melting point is reported as 159 to 164 °C (dec.).

Target: T1, human β3 adrenergic receptor (Homo sapiens, UniProt P13945)
T1 construct: expressed in transfected cells; host or cells: DXB-11 Chinese hamster ovary (CHO) cell line, stably transfected (phd expression vector)
Assay: whole cell receptor coupled c-AMP assay (Emax relative to isoproterenol)
Type: cell-based
Conditions: transfected CHO cells, c-AMP SPA; compound's maximal response divided by isoproterenol maximal response times 100; average of at least 3 runs; SEM in brackets; read-out: Emax (SEM), % intrinsic activity relative to isoproterenol
Text: The Emax values represent the average of at least 3 runs except as otherwise indicated.
The genes encoding the human β1-adrenergic receptor (Frielle et al., Proc. Natl. Acad. Sci., 84:7920–7924, 1987), the human β2-adrenergic receptor (Kobika et al., Proc. Natl. Acad. Sci., 84:46–50, 1987, Emorine et al., Proc. Natl. Acad. Sci., 84:6995–6999, 1987) and the human β3 adrenergic receptor (GraTineman et al., Molecular Pharmacology, 44(2):264–70, 1993) are individually subcloned into a phd expression vector (Grinnell el al., Bio/Technology, 5:1189–1192, 1987) and transfected into the DXB-11 Chinese hamster ovary (CHO) cell line by calcium phosphate precipitation methodology. The stably transfected cells are grown to 95% confluency in 95% Dulbecco's modified Eagles Medium (DMEM), 5% fetal bovine serum and 0.01% proline. Media is removed and the cells are washed with phosphate buffered (pH 7.4) saline (without magnesium and calcium). Cells are then lifted using an enzyme free cell dissociation solution (Specialty Media, Lavallette, N.J.) and pelleted by centrifugation.
Cells from each of the above cell lines are resuspended and added (20,000/well) to a 96-well plate. Cells are incubated at 37° C. with representative compounds of the invention for 20 minutes in buffer (Hank's balanced salt solution, 10 mM HEPES, 0.1% BSA, 1 mM L-ascorbic acid, 0.2% dimethyl sulfoxide, 1 mM 3-isobutyl-1-methylxanthine, pH 7.4). After halting the incubation with quench buffer (50 mM Na Acetate, 0.25% Triton X-100, pH 5.8), the c-AMP level is quantified by scintillation proximity assay (SPA) using a modification of the commercially available c-AMP kit (Amersham, Arlington Heights, Ill.) with rabbit anti-cAMP antibody (ICN Bioniedicals, Aurora, Ohio) for the kit.
Sigmoidal dose response curves, from the whole cell receptor coupled c-AMP assay are fit to a four parameter logistic equation using non linear regression: y=(a-d)/(1+(Dose/c)^b)+d where a and d are responses at zero and maximal dose, b is the slope factor and c is the EC50 as previously described (DeLean et al., Am. J. Physiol., 235, E97–E102, 1978). EC50 is assessed as the concentration producing 50% of the maximum response to each agonist.
Isoproterenol is accepted in the art as a non-selective β3 agonist and is widely used as a comparator in evaluating the activity of compounds. See Trends in Pharm. Sci., 15:3, 1994. The % intrinsic activity (Emax) of representative compounds of the invention is assessed relative to isoproterenol by the compound's maximal response divided by the isoproterenol maximal response times 100.

T1 sequence (P13945 whole entry): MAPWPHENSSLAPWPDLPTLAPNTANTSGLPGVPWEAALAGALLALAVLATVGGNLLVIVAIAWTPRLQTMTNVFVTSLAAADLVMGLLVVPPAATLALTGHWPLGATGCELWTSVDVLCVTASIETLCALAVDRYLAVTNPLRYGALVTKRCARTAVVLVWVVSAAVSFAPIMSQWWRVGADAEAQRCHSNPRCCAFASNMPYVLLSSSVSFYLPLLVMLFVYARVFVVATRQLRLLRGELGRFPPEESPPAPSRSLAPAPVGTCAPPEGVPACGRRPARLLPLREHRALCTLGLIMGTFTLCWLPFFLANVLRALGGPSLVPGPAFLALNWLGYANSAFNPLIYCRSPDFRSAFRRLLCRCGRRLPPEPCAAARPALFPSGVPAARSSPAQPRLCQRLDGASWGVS

Point of comparison: CC(C)(Cc1ccc(Oc2ncccc2C(N)=O)cc1)NC[C@H](O)COc1cccc2[nH]c(=O)n(CC3CCCC3)c12 [Example 20], Emax 66.8%. Against it:
- CC(C)(C)Cn1c(=O)[nH]c2cccc(OC[C@@H](O)CNC(C)(C)Cc3ccc(Oc4ccc(C(N)=O)cn4)cc3)c21 [Example 12] — lower, 65.5%
- CC(C)(C)Cn1c(=O)[nH]c2cccc(OC[C@@H](O)CNC(C)(C)Cc3ccc(Oc4ncccc4C(N)=O)cc3)c21 [Example 13] — lower, 66.4%
- CC(C)(Cc1ccc(Oc2ccc(C(N)=O)cn2)cc1)NC[C@H](O)COc1cccc2[nH]c(=O)n(CC3CC3)c12 [Example 14] — higher, 67.9%
- CC(C)(Cc1ccc(Oc2ncccc2C(N)=O)cc1)NC[C@H](O)COc1cccc2[nH]c(=O)n(CC3CC3)c12 [Example 15] — higher, 80.1%
- CC(C)(Cc1ccc(Oc2ccc(C(N)=O)cc2Cl)cc1)NC[C@H](O)COc1cccc2[nH]c(=O)n(CC3CC3)c12 [Example 16] — higher, 76%
- CC(C)(Cc1ccc(Oc2ccc(C(N)=O)cn2)cc1)NC[C@H](O)COc1cccc2[nH]c(=O)n(CC3CCC3)c12 [Example 17] — lower, 58.2%
- CC(C)(Cc1ccc(Oc2ncccc2C(N)=O)cc1)NC[C@H](O)COc1cccc2[nH]c(=O)n(CC3CCC3)c12 [Example 18] — lower, 59.8%
- CC(C)(Cc1ccc(Oc2ccc(C(N)=O)cn2)cc1)NC[C@H](O)COc1cccc2[nH]c(=O)n(CC3CCCC3)c12 [Example 19] — lower, 63.7%

System: rat atria
Assay: In Vitro Rat Atrial Tachycardia
Conditions: isolated rat atria, cumulative addition until no further increase in atrial rate or 10^-4; average of at least 3 runs
Procedure: Male rats (250–350 g) (Harlan Sprague Dawley, Indianapolis, Ind., USA) are killed by cervical dislocation. Hearts are removed and the left and right atria are dissected and mounted with thread in tissue baths containing 10 mls of modified Krebs' solution. Initial resting tension is 1.5–2.0 g at the outset of the experiment (Naunyn-Schmied Arch. Pharmacol., 320:145, 1982). Tissues are allowed to equilibrate approximately 30 minutes with vigorous oxygenation before exposure to a compound of the invention.
To evaluate the ability of test compounds to increase heart rate, representative compounds of the present invention are added cumulatively once the atrial rate reached a steady state from the previous addition. Compound addition is continued until no further increase in atrial rate occurred or until a concentration of 10^−4 is reached. The increase in beats per minute (bpm) is measured for each concentration of test compound by means of a BioPac System (Br. J. of Pharmacol., 126:1018–1024, 1999).
The “% increase” values represent the average of at least 3 runs.

Point of comparison: CC(C)(Cc1ccc(Cc2ccc(C(N)=O)cn2)cc1)NC[C@H](O)COc1cccc2[nH]c(=O)[nH]c12 [Hydrogen, reference compound], “% Increase in Heart Rate” value 17.7 ± 3.7%. Against it:
- CC(C)(Cc1ccc(Cc2ccc(C(N)=O)cn2)cc1)NC[C@H](O)COc1cccc2[nH]c(=O)n(CC3CCC3)c12 [Cyclobutylmethyl] — lower, 6.5 ± 2.2%
- CC(C)(Cc1ccc(Cc2ccc(C(N)=O)cn2)cc1)NC[C@H](O)COc1cccc2[nH]c(=O)n(CC3CCCC3)c12 [Cyclopentylmethyl] — lower, 9.9 ± 0.3%
- CC(C)(Cc1ccc(Cc2ccc(C(N)=O)cn2)cc1)NC[C@H](O)COc1cccc2[nH]c(=O)n(CC3CC3)c12 [Cyclopropylmethyl] — lower, 8.9 ± 1.2%
- CCn1c(=O)[nH]c2cccc(OC[C@@H](O)CNC(C)(C)Cc3ccc(Cc4ccc(C(N)=O)cn4)cc3)c21 [Ethyl, reference compound] — within error, 19.9 ± 0.4%
- Cn1c(=O)[nH]c2cccc(OC[C@@H](O)CNC(C)(C)Cc3ccc(Cc4ccc(C(N)=O)cn4)cc3)c21 [Methyl, reference compound] — within error, 20.8 ± 1.8%
